How the values were obtained:
[1] = molecular target: T1, α4β2α5D398 nAChR heterologously expressed in HEK293T cells (Mus musculus, UniProt O70174+Q9ERK7); assay: Aequorin-based luminescence assay of agonist-evoked changes in intracellular calcium; assay type: cell-based
T1 construct: expressed in transfected cells; host or cells: HEK293T
Method: (§1) HEK293T cells were maintained at 37° C. in a humidified, 5% CO2 environment in Dulbecco's modified Eagle's medium (high glucose, no pyruvate) (DMEM), 10% heat-inactivated fetal bovine serum and antibiotic/antimycotic (100 U/mL penicillin, 100 μg/mL streptomycin and 0.25 μg/mL amphotericin B). Culture reagents were purchased from either Biowhittaker (East Rutherford, N.J., USA) or Invitrogen (Carlsbad, Calif., USA).
Agonist-evoked changes in intracellular calcium was performed using an aequorin-based luminescence assay as previously described (Karadsheh et al., 2004). […]
For the epibatidine concentration-response curves, 50 μL of cells were added to each well of a 96-well opaque white plate and placed in a Victor3V plate reader (Perkin Elmer). Following a 1 second baseline read, 50 μl epibatidine was injected onto each sample and luminescence was recorded at 0.2 s intervals for 20 s immediately following the addition of agonist. At the completion of the agonist stimulation, 100 μL of a solution containing 0.1% Triton X-100 and 100 mM CaCl2 was injected into each well and luminescence was recorded for 5 s at 0.1 s intervals. […]

[2] = molecular target: T2, α4β2α5N398 nAChR heterologously expressed in HEK293T cells (Mus musculus, UniProt O70174+Q2MKA5+Q9ERK7, D397N); assay: cell-based
T2 construct: expressed in transfected cells; host or cells: HEK293T
Method: as §1
(§2) Agonist-evoked changes in intracellular calcium was performed using an aequorin-based luminescence assay as previously described (Karadsheh et al., 2004). HEK293T cells were seeded onto six-well plates (1.5×10^6 cells/well) and were transfected the following day with plasmids (0.25 μg/well for each plasmid) containing a human codon-optimized aequorin cDNA (Vernon and Printen 2002), the mouse α4 and β2 cDNAs and either the wild-type mouse α5 cDNA (D398) or a mouse α5 cDNA in which D398 was mutated to N398. Transfection was performed using either the LipofectAmine Plus Reagent (Invitrogen) or Fugene HD transfection reagent (Roche, Indianapolis, Ind.) as recommended by the manufacturers. […]
(§3) For the epibatidine concentration-response curves, 50 μL of cells were added to each well of a 96-well opaque white plate and placed in a Victor3V plate reader (Perkin Elmer). Following a 1 second baseline read, 50 μl epibatidine was injected onto each sample and luminescence was recorded at 0.2 s intervals for 20 s immediately following the addition of agonist. At the completion of the agonist stimulation, 100 μL of a solution containing 0.1% Triton X-100 and 100 mM CaCl2 was injected into each well and luminescence was recorded for 5 s at 0.1 s intervals. In order to control for differences in cell number per well as well as variation in transfection efficiency and coelenterazine loading, agonist responses were normalized by dividing the maximal peak value for the agonist-stimulated luminescence (L) by the total peak luminescence value (Lmax) (maximal peak agonist-stimulated luminescence+maximal peak luminescence resulting from cell lysis in the presence of high calcium).

[3] = test system: α4β2α5N398 nAChR heterologously expressed in HEK293T cells; assay: cell-based; parameters: species or system mouse; settings: p<0.0005
Method: as §1, §2, §3

[4] = cigarette smoking, background statement; cited from earlier work

T1 sequence (Q2MKA5 30-467): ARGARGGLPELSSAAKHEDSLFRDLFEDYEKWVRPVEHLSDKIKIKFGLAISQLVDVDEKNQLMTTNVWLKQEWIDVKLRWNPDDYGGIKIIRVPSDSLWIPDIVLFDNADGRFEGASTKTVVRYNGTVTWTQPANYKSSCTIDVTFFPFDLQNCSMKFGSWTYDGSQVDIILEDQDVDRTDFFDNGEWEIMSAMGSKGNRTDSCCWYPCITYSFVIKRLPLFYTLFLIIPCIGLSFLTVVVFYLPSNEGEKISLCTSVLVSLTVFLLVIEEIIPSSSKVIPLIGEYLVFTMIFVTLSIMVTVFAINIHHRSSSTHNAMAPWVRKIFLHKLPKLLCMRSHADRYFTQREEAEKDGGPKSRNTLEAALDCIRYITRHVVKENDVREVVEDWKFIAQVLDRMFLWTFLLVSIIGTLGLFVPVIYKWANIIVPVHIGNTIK
T1 sequence (Q9ERK7 26-501): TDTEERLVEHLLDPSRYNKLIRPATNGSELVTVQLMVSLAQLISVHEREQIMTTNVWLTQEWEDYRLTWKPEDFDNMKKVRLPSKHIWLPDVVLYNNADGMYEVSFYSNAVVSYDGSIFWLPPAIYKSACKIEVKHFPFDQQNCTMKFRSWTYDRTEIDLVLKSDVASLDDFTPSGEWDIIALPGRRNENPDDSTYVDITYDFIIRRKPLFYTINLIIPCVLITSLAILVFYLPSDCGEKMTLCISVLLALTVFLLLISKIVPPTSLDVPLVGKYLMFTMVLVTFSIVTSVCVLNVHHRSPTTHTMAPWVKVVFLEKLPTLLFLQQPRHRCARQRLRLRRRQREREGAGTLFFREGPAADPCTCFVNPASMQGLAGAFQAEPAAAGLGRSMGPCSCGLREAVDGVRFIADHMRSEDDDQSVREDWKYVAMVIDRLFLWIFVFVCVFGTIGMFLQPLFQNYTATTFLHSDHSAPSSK
T1 sequence (O70174 31-629): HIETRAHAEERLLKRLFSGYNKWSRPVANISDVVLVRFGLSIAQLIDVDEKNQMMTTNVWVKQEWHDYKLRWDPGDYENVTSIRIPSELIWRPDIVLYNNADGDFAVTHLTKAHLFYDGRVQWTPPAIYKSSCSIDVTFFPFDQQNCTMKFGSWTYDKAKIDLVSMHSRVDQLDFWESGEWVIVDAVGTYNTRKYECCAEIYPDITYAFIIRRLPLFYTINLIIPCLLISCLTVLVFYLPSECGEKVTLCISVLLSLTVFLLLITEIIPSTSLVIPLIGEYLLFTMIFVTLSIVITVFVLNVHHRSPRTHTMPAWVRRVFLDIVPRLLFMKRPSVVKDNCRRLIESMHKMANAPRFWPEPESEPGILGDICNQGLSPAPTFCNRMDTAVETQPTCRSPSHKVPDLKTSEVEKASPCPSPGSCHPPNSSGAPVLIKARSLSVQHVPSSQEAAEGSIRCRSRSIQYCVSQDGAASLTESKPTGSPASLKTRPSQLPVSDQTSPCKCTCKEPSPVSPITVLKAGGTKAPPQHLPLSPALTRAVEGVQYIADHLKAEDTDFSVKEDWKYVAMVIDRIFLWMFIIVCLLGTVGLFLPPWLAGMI
T2 sequence (Q2MKA5 30-467 D397N): as the sequence (Q2MKA5 30-467) above, with D368N counted along it
T2 sequence (O70174 31-629): as the sequence (O70174 31-629) above
T2 sequence (Q9ERK7 26-501): as the sequence (Q9ERK7 26-501) above

Row | Compound | EC50 [1] | maximal response to agonist per receptor ([1]; L/Lmax divided by fmol of nAChR per sample well, α4β2α5D398, mean ± SEM, N=12) | EC50 [2] | maximal response to agonist per receptor ([2]; L/Lmax divided by fmol of nAChR per sample well, α4β2α5N398, mean ± SEM, N=12) | maximal response to agonist per receptor, α4β2α5N398 relative to α4β2α5D398 [3] | time to peak drug level in brain after inhalation [4]
1 | Clc1ccc(C2CC3CCC2N3)cn1 (stereo not drawn) [epibatidine] | 0.0259 ± 0.0015 nM | 0.147±0.01 | 0.0191 ± 0.0014 nM | 0.356±0.022 | over two-fold higher | –
2 | CN1CCCC1c1cccnc1 (stereo not drawn) [nicotine] | – | – | – | – | – | ≤ 10 s
